Test results as given in patent US4235923A, “Esters of 3-substituted-2-(aminocarbonyl)oxiranecarboxylic acids as lipogenesis inhibitors” (Shell Oil Company, priority 1979, dated 1980).

System: lipogenesis in swine adipose tissue
Test: inhibition of lipogenesis (incorporation of radioactive glucose carbon into lipid) in slices of swine adipose tissue
Format: cell-based
Details: 100 micrograms per milliliter, 37° C., 2 hours, glucose-U^14 C, insulin, 5% DMSO, triplicate
Source text: The manner in which they cause this effect is not known with certainty; it is believed that they interfere with the synthesis of fatty acids in the tissues. Their effectiveness for this purpose has been ascertained by immersing samples of swine adipose tissue in a liquid medium containing radioactive glucose and the test chemical, for a period of time, then isolating the lipid from the treated tissue and determining the incorporation of the radioactive carbon into lipid by means of scintillation counting techniques. These tests were conducted in swine adipose tissue because in swine, the primary site of lipogensis--i.e., fatty acid synthesis--appears to be adipose tissue.
Described in more detail, the tests were conducted according to the following general procedure:
150 milligrams of slices of swine adipose tissue were incubated at 37° C. for 2 hours with shaking in 3 milliliters of Krebs-Ringer bicarbonate solution containing one-half the normal calcium ion concentration, 60 micromoles of glucose, 0.5 micro-Curie of glucose-U^14 C, and 300 microunits of insulin, and 5% dimethyl sulfoxide (DMSO). The test compounds were added as suspensions or solutions in DMSO and were present at a concentration of 100 micrograms per milliliter of the incubation mixture.
The incubation was terminated by addition of 0.25 milliliter of 1 N sulfuric acid. The resulting mixture was extracted with a total of 25 milliliters of chloroform: methanol (2:1 v/v). The extracts were washed according to Folch et al. (J. Biol. Chem., 226, 497-509, (1957)), air dried, and counted in a liquid scintillation counter with 15 milliliters of counting fluid (two parts toluene containing 0.4% w/v New England Nuclear Omnifluor: 1 part Triton X-100). The tests were conducted in triplicate and were accompanied by control tests in which all ingredients,proportions and conditions were the same except that no test compound was included. From the data obtained were calculated the percent inhibition of lipid synthesis by the test compound in each case. The data obtained from the tests are set out in Table 1, as the percent inhibition of lipogenesis compared to the results obtained in the control tests wherein only the test compound was omitted.

With `CCCCCCC1OC1(C(N)=O)C(=O)OCC` (stereo not drawn) [Compound 2, Ethyl 2-(aminocarbonyl)-3-hexyloxiranecarboxylate cis] the “Percent Inhibition (of lipogenesis compared to control)” value was 83%.

Same assay, conditions: Sus scrofa, 2 h, 100 micrograms per milliliter, 37° C., glucose-U^14 C, insulin, 5% DMSO, triplicate, read-out: Percent Inhibition (of lipogenesis compared to control)

Compared with `CCCCCCC1OC1(C(N)=O)C(=O)OCC` (stereo not drawn) [Compound 1, Ethyl 2-(aminocarbonyl)-3-hexyloxiranecarboxylate trans], `CCOC(=O)C1(C(N)=O)OC1C` (stereo not shown) [Compound 3, Ethyl 2-(aminocarbonyl)-3-methyloxiranecarboxylate] is lower in inhibition at 100 µg/mL: 88% for the first, 18% for the second.

First: CCOC(=O)C1(C(N)=O)OC1C1CCCCC1 (stereo not shown) [Compound 4, Ethyl 2-(Aminocarbonyl)-3-cyclohexyloxiranecarboxylate]
Second: CCOC(=O)C1(C(N)=O)OC1c1ccccc1 (stereo not shown) [Compound 5, Ethyl 2-(aminocarbonyl)-3-phenyloxiranecarboxylate]
The inhibition at 100 µg/mL of the first is lower: 75% for the first, 85% for the second.

First: CCOC(=O)C1(C(=O)NC)OC1c1ccccc1 (stereo not shown) [Compound 6]
Second: COC(=O)C1(C(N)=O)OC1c1ccccc1 (stereo not shown) [Compound 8, Methyl 2-(aminocarbonyl)-3-phenyloxiranecarboxylate]
The inhibition at 100 µg/mL of the first is lower: 27% for the first, 47% for the second.

Going from `CC(C)OC(=O)C1(C(N)=O)OC1c1ccccc1` (stereo not shown) [Compound 7, 1-Methylethyl 2-(aminocarbonyl)-3-phenyloxiranecarboxylate] to `CCOC(=O)C1(C(N)=O)OC1c1ccc(C)cc1` (stereo not shown) [Compound 10], the inhibition at 100 µg/mL falls from 48% to 37%.

Compared with `CCOC(=O)C1(C(N)=O)OC1c1ccc(Cl)cc1` (stereo not shown) [Compound 9], `CCOC(=O)C1(C(N)=O)OC1c1ccc(OC)cc1` (stereo not shown) [Compound 14] is lower in inhibition at 100 µg/mL: 65% for the first, 55% for the second.

First: CCOC(=O)C1(C(N)=O)OC1c1ccc(OC)c(OC)c1 (stereo not shown) [Compound 11]
Second: CCOC(=O)C1(C(N)=O)OC1c1ccc(Cl)c(Cl)c1 (stereo not shown) [Compound 13]
The inhibition at 100 µg/mL of the first is lower: 33% for the first, 87% for the second.

Compared with `CCOC(=O)C1(C(N)=O)OC1c1cccc([N+](=O)[O-])c1` (stereo not shown) [Compound 12], `CCOC(=O)C1(C(N)=O)OC1c1ccc([N+](=O)[O-])cc1` (stereo not shown) [Compound 15] is lower in inhibition at 100 µg/mL: 76% for the first, 37% for the second.

`CCOC(=O)C1(C(N)=O)OC1C(=O)c1ccccc1` (stereo not shown) [Compound 16, Ethyl 2-(aminocarbonyl)-3-benzoyloxiranecarboxylate] gave an inhibition at 100 µg/mL of 74%.
